In US20090143279A1 (priority 2007, published 2009):
Read-outs that look alike come from different tables or passages of the source.

Experiments:
C2C12 myotubes = conditions: for Viability (composite Z-score): normalized score vs mock-treated (DMSO) wells
mtOXPHOS transcripts = type: cell-based, mouse; conditions: for mitoOX (composite Z-score): normalized score vs mock-treated (DMSO) wells
[1] = system: mitochondrial membrane potential; type: cell-based, mouse; conditions: for ΔΨm (composite Z-score): normalized score vs mock-treated (DMSO) wells
reactive oxygen species = type: cell-based, mouse; conditions: for ROS (composite Z-score): normalized score vs mock-treated (DMSO) wells
cytochrome c = type: cell-based, mouse; conditions: for cyt c (composite Z-score): normalized score vs mock-treated (DMSO) wells
nuOXPHOS transcripts = type: cell-based, mouse; conditions: for nucOX (composite Z-score): normalized score vs mock-treated (DMSO) wells
[2] = system: cellular dehydrogenase activity; conditions: for MTT (composite Z-score): normalized score vs mock-treated (DMSO) wells
OXPHOS gene expression = type: cell-based, mouse; conditions: for GE-HTS (composite Z-score): normalized score vs mock-treated (DMSO) wells
[3] = composite Z-score vs mock-treated (DMSO) wells, Conc 20 μM
[4] = composite Z-score vs DMSO, Conc 20 μM
[5] = 8.76 μM, composite Z-score vs DMSO
[6] = 20 μM, composite Z-score vs DMSO
[7] = normalized composite Z-score vs mock-treated (DMSO) wells, Conc 20 μM
[8] = composite Z-score vs DMSO wells, Conc 20 μM
[9] = 15.02 μM, composite Z-score vs DMSO

## C=C1C2=CC(=O)O[C@@H](c3ccoc3)[C@]2(C)CC[C@@H]1[C@@]1(C)C=CC(=O)C(C)(C)[C@@H]1CC(=O)OC [deoxyandirobin]
C2C12 myotubes; [3]
  Viability: 0.894
mtOXPHOS transcripts; [3]
  mitoOX: 1.246
[1]; [3]
  ΔΨm: 0.381
Reactive oxygen species; [3]
  ROS: −1.077
Cytochrome c; [3]
  cyt c: 1.196
nuOXPHOS transcripts; [3]
  nucOX: 1.240
[2]; [3]
  MTT: 0.232
OXPHOS gene expression; [3]
  GE-HTS: 1.352

## CC(=O)O[C@@H]1C[C@H]2C(C)(C)C(=O)C=C[C@]2(C)[C@H]2CC[C@]3(C)C(=CC(=O)O[C@H]3c3ccoc3)[C@@]21C [deoxygedunin]
C2C12 myotubes; [4]
  Viability: −0.326
mtOXPHOS transcripts; [4]
  mitoOX: −0.808
[1]; [4]
  ΔΨm: 1.327
Reactive oxygen species; [4]
  ROS: −0.640
Cytochrome c; [4]
  cyt c: 1.083
nuOXPHOS transcripts; [4]
  nucOX: −1.298
[2]; [4]
  MTT: −0.532
OXPHOS gene expression; [4]
  GE-HTS: −1.229

## CC(=O)O[C@@H]1C=C[C@]2(C)C(C[C@@H](OC(C)=O)[C@]3(C)C4=CC(=O)O[C@H](c5ccoc5)[C@@]4(C)CCC23)C1(C)C (stereo partly shown) [deoxygedunol acetate]
C2C12 myotubes; [3]
  Viability: −0.767
mtOXPHOS transcripts; [3]
  mitoOX: −0.639
[1]; [3]
  ΔΨm: 0.137
Reactive oxygen species; [3]
  ROS: 1.251
Cytochrome c; [3]
  cyt c: 0.095
nuOXPHOS transcripts; [3]
  nucOX: −0.850
[2]; [3]
  MTT: −1.930
OXPHOS gene expression; [3]
  GE-HTS: −0.815

## Nc1nc2c(ncn2[C@H]2C[C@H](O)[C@@H](CO)O2)c(=O)[nH]1 [deoxyguanosine]
C2C12 myotubes; [4]
  Viability: −0.819
mtOXPHOS transcripts; [4]
  mitoOX: 0.245
[1]; [4]
  ΔΨm: −0.268
Reactive oxygen species; [4]
  ROS: −0.110
Cytochrome c; [4]
  cyt c: 0.695
nuOXPHOS transcripts; [4]
  nucOX: −0.090
[2]; [4]
  MTT: −0.703
OXPHOS gene expression; [4]
  GE-HTS: −0.001

## CC(=O)O[C@H]1C[C@@H](OC(C)=O)C(C)(C)[C@@H]2C[C@@H](OC(C)=O)[C@@]3(C)C4=CC(=O)O[C@@H](c5ccoc5)[C@]4(C)CC[C@@H]3[C@@]12C [deoxykhivorin]
C2C12 myotubes; Conc 20 μM
  Viability (composite Z-score): 0.803
mtOXPHOS transcripts; Conc 20 μM
  mitoOX (composite Z-score): −1.101
[1]; Conc 20 μM
  ΔΨm (composite Z-score): 0.449
Reactive oxygen species; Conc 20 μM
  ROS (composite Z-score): −0.038
Cytochrome c; Conc 20 μM
  cyt c (composite Z-score): 0.073
nuOXPHOS transcripts; Conc 20 μM
  nucOX (composite Z-score): −0.917
[2]; Conc 20 μM
  MTT (composite Z-score): −0.494
OXPHOS gene expression; Conc 20 μM
  GE-HTS (composite Z-score): −1.026

## COc1ccc2c(c1)OCC(Cc1ccc(OC)c(OC)c1)C2=O (stereo not shown) [deoxysappanone B trimethyl ether]
C2C12 myotubes; Conc 20 μM
  Viability (composite Z-score): −0.068
mtOXPHOS transcripts; Conc 20 μM
  mitoOX (composite Z-score): 0.613
[1]; Conc 20 μM
  ΔΨm (composite Z-score): −0.194
Reactive oxygen species; Conc 20 μM
  ROS (composite Z-score): 1.064
Cytochrome c; Conc 20 μM
  cyt c (composite Z-score): 0.336
nuOXPHOS transcripts; Conc 20 μM
  nucOX (composite Z-score): 1.050
[2]; Conc 20 μM
  MTT (composite Z-score): −1.507
OXPHOS gene expression; Conc 20 μM
  GE-HTS (composite Z-score): 0.993

## Cc1cc(N)c2ccccc2[n+]1CCCCCCCCCC[n+]1c(C)cc(N)c2ccccc21 [dequalinium]
C2C12 myotubes; [5]
  Viability: −3.696
C2C12 myotubes; [6]
  Viability: −3.176
mtOXPHOS transcripts; [5]
  mitoOX: −2.024
mtOXPHOS transcripts; [6]
  mitoOX: −2.705
[1]; [5]
  ΔΨm: −3.242
[1]; [6]
  ΔΨm: −2.506
Reactive oxygen species; [5]
  ROS: −3.041
Reactive oxygen species; [6]
  ROS: −3.055
Cytochrome c; [5]
  cyt c: −4.108
Cytochrome c; [6]
  cyt c: −3.241
nuOXPHOS transcripts; [5]
  nucOX: −0.852
nuOXPHOS transcripts; [6]
  nucOX: −1.087
[2]; [5]
  MTT: −5.151
[2]; [6]
  MTT: −4.446
OXPHOS gene expression; [5]
  GE-HTS: −1.322
OXPHOS gene expression; [6]
  GE-HTS: −1.733

## CC(C)=CCc1c(O)cc2occ(-c3ccc4c(c3)OCO4)c(=O)c2c1O [derrubone]
C2C12 myotubes; [4]
  Viability: −0.568
mtOXPHOS transcripts; [4]
  mitoOX: 0.066
[1]; [4]
  ΔΨm: −1.272
Reactive oxygen species; [4]
  ROS: 1.419
Cytochrome c; [4]
  cyt c: −0.126
nuOXPHOS transcripts; [4]
  nucOX: −0.626
[2]; [4]
  MTT: −0.499
OXPHOS gene expression; [4]
  GE-HTS: −0.409

## COc1cc(OC)c2c(OC)c(-c3ccc4c(c3)OCO4)c(=O)oc2c1 [derrusnin]
C2C12 myotubes; [7]
  Viability: 1.067
mtOXPHOS transcripts; [7]
  mitoOX: 0.417
[1]; [7]
  ΔΨm: 0.025
Reactive oxygen species; [7]
  ROS: 4.060
Cytochrome c; [7]
  cyt c: 0.511
nuOXPHOS transcripts; [7]
  nucOX: −0.129
[2]; [7]
  MTT: −1.630
OXPHOS gene expression; [7]
  GE-HTS: 0.039

## c1ccc2c(c1)CN1CCCC1=N2 [desoxypeganine]
C2C12 myotubes; [4]
  Viability: −0.281
mtOXPHOS transcripts; [4]
  mitoOX: 0.556
[1]; [4]
  ΔΨm: 1.046
Reactive oxygen species; [4]
  ROS: 0.647
Cytochrome c; [4]
  cyt c: 0.372
nuOXPHOS transcripts; [4]
  nucOX: 0.621
[2]; [4]
  MTT: 1.441
OXPHOS gene expression; [4]
  GE-HTS: 0.631

## CC(=O)OCC(=O)[C@@]1(O)[C@H](C)C[C@H]2[C@@H]3CCC4=CC(=O)C=C[C@]4(C)[C@@]3(F)[C@@H](O)C[C@@]21C [dexamethasone acetate]
C2C12 myotubes; [4]
  Viability: −1.518
mtOXPHOS transcripts; [4]
  mitoOX: 0.330
[1]; [4]
  ΔΨm: −0.439
Reactive oxygen species; [4]
  ROS: 0.067
Cytochrome c; [4]
  cyt c: 0.174
nuOXPHOS transcripts; [4]
  nucOX: 0.516
[2]; [4]
  MTT: 0.058
OXPHOS gene expression; [4]
  GE-HTS: 0.461

## CC(=O)Oc1cccc2c1C(=O)c1c(OC(C)=O)cc(C(=O)O)cc1C2=O [diacerin]
C2C12 myotubes; Conc 20 μM
  Viability (composite Z-score): −0.692
mtOXPHOS transcripts; Conc 20 μM
  mitoOX (composite Z-score): −0.239
[1]; Conc 20 μM
  ΔΨm (composite Z-score): 0.195
Reactive oxygen species; Conc 20 μM
  ROS (composite Z-score): 0.228
Cytochrome c; Conc 20 μM
  cyt c (composite Z-score): 0.389
nuOXPHOS transcripts; Conc 20 μM
  nucOX (composite Z-score): −0.509
[2]; Conc 20 μM
  MTT (composite Z-score): −0.608
OXPHOS gene expression; Conc 20 μM
  GE-HTS (composite Z-score): −0.446

## CC(=O)c1c(O)c(C)c(O)c2c1oc1c(C(C)=O)c(O)c(C)c(O)c12 [diacetyldideisovaleryl-rhodomyrtoxin]
C2C12 myotubes; [3]
  Viability: −0.779
mtOXPHOS transcripts; [3]
  mitoOX: −0.703
[1]; [3]
  ΔΨm: 1.937
Reactive oxygen species; [3]
  ROS: 0.967
Cytochrome c; [3]
  cyt c: 0.057
nuOXPHOS transcripts; [3]
  nucOX: −0.742
[2]; [3]
  MTT: 0.875
OXPHOS gene expression; [3]
  GE-HTS: −0.776

## Cc1onc(-c2c(Cl)cccc2Cl)c1C(=O)N[C@@H]1C(=O)N2[C@@H]1SC(C)(C)[C@@H]2C(=O)O [dicloxacillin sodium]
C2C12 myotubes; [8]
  Viability: −0.214
mtOXPHOS transcripts; [8]
  mitoOX: 0.870
[1]; [8]
  ΔΨm: 0.196
Reactive oxygen species; [8]
  ROS: −0.070
Cytochrome c; [8]
  cyt c: −1.277
nuOXPHOS transcripts; [8]
  nucOX: 0.533
[2]; [8]
  MTT: −0.587
OXPHOS gene expression; [8]
  GE-HTS: 0.661

## C/C=C(/C(=C/C)c1ccc(O)cc1)c1ccc(O)cc1 [dienestrol]
C2C12 myotubes; [9]
  Viability: 0.829
C2C12 myotubes; [6]
  Viability: 0.290
mtOXPHOS transcripts; [9]
  mitoOX: 0.481
mtOXPHOS transcripts; [6]
  mitoOX: −0.222
[1]; [9]
  ΔΨm: −0.205
[1]; [6]
  ΔΨm: 0.129
Reactive oxygen species; [9]
  ROS: −0.210
Reactive oxygen species; [6]
  ROS: −0.260
Cytochrome c; [9]
  cyt c: 0.894
Cytochrome c; [6]
  cyt c: −0.653
nuOXPHOS transcripts; [9]
  nucOX: −0.191
nuOXPHOS transcripts; [6]
  nucOX: −0.251
[2]; [9]
  MTT: −0.652
[2]; [6]
  MTT: −0.326
OXPHOS gene expression; [9]
  GE-HTS: 0.033
OXPHOS gene expression; [6]
  GE-HTS: −0.280

## CC1(C)C(=O)CC[C@@]2(C)C1C[C@@H](O)[C@@]1(C)C3=CC(=O)O[C@@H](c4ccoc4)[C@]3(C)CCC21 (stereo partly shown) [dihydro-7-desacetyldeoxygedunin]
C2C12 myotubes; [7]
  Viability: −0.527
mtOXPHOS transcripts; [7]
  mitoOX: −1.218
[1]; [7]
  ΔΨm: −0.170
Reactive oxygen species; [7]
  ROS: 0.608
Cytochrome c; [7]
  cyt c: 0.599
nuOXPHOS transcripts; [7]
  nucOX: −0.719
[2]; [7]
  MTT: −1.403
OXPHOS gene expression; [7]
  GE-HTS: −0.961

## CC(C)C1COc2cc3oc(=O)ccc3cc2O1 (stereo not shown) [dihydro-obliquin]
C2C12 myotubes; [7]
  Viability: −0.141
mtOXPHOS transcripts; [7]
  mitoOX: 0.303
[1]; [7]
  ΔΨm: −0.159
Reactive oxygen species; [7]
  ROS: 1.045
Cytochrome c; [7]
  cyt c: −0.662
nuOXPHOS transcripts; [7]
  nucOX: 0.192
[2]; [7]
  MTT: −0.661
OXPHOS gene expression; [7]
  GE-HTS: 0.233

## C=C1CCC(=O)C(C)CCC2C1CC2(C)C (stereo not shown) [dihydrocaryophyllen-5-one]
C2C12 myotubes; [7]
  Viability: 0.219
mtOXPHOS transcripts; [7]
  mitoOX: −0.317
[1]; [7]
  ΔΨm: 0.090
Reactive oxygen species; [7]
  ROS: 0.483
Cytochrome c; [7]
  cyt c: 0.620
nuOXPHOS transcripts; [7]
  nucOX: −0.513
[2]; [7]
  MTT: −1.453
OXPHOS gene expression; [7]
  GE-HTS: −0.496
